Test results reported in US10189809B2, “SGC stimulators” (Ironwood Pharmaceuticals, Inc., priority 2010, dated 2019).
Where two headings read alike, the source gives them in different places.

Experiments:
[1] = molecular target: T1, soluble guanylate cyclase (sGC) (Homo sapiens (Human), UniProt Q02108+Q02153); test: sGC-HEK-cGMP assay run with SNP incubation (HEK WC assay); assay type: cell-based; conditions: for Emax at 10 µM: read-out: HEK WC Assay (% Emax at 10 uM/with 10 uM SNP); for Emax at 30 µM: read-out: HEK WC Assay (% Emax at 30 uM/with 10 uM SNP); for HEK WC Assay (fold increase at 30 μM in the presence of 10 μM SNP): compound at 30 μM; for EC50: in the presence of 10 uM SNP
Method in brief: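 HEK293 cells with endogenous sGC were pretreated with 0.5 mM IBMX for 15 min at 37 °C, then exposed to test compound plus sodium nitroprusside for 10 min at 37 °C.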

[2] = molecular target: T1, soluble guanylate cyclase (sGC); test: sGC-HEK-cGMP assay run in the absence of SNP (HEK WC assay); assay type: cell-based; conditions: for HEK WC Assay (fold increase at 10 μM): compound at 10 μM; for HEK WC Assay (fold increase at 10 μM) / HEK WC Assay (fold increase at 30 μM): no SNP, increase in the sGC receptor activity; for HEK WC Assay (fold increase at 30 μM) / HEK WC Assay (fold increase at 30 μM in the absence of SNP): compound at 30 μM
Method in brief: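 HEK293 cells with endogenous sGC, preincubated 15 min at 37° C with 0.5 mM IBMX, then exposed to test compound 10 min at 37° C without SNP. Cells lysed in 0.1 M HCl; cGMP quantified by LC/MS against a standard curve. EC50 from concentration-response curves.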

[3] = molecular target: Human soluble guanylate cyclase enzyme (hsGC) (Homo sapiens (Human), UniProt Q02108+Q02153); test: Purified human sGC enzyme activity assay; assay type: biochemical; conditions: for sGC Enzyme (specific activity at 10 μM) / sGC Enzyme (fold increase at 10 μM without SNP): 10 μM compound; for sGC Enzyme (specific activity at 30 μM) / sGC Enzyme (fold increase at 30 μM without SNP): 30 μM compound
Method: Human soluble guanylate cyclase enzyme (hsGC) obtained from Enzo Inc. (P/N: ALX-201-177) was used to evaluate the activity of test compounds. The assay reactions contained 0.1 M Tris (pH 8.0), 0.5 mg/mL BSA (pH 8.0), 2 mM DTT, 2 mM MgCl2, 300 μM GTP, 1 mM 3-isobutyl-1-methylxanthine (IBMX) and 5 ng human soluble guanylate cyclase enzyme. Test compounds in DMSO were then added (2 μL, 10 or 30 μM final concentration) and incubated (200 μL, 96-well plate format) at 37° C. for 30 minutes. The controls were carried out using 2 μL DMSO. After the 30 minute incubation, the reaction was stopped with the addition of 200 μL of cold methanol. The plate was then centrifuged at 3,200 rpm for 10 minutes at room temperature. Supernatants (200 μL) were collected and transferred to a new 96 well plate for analysis.
An 8 point cGMP (Sigma-Aldrich P/N: G6129) standard curve was prepared in assay buffer ranging from 0.156-20 μM. Samples for the cGMP standard curve were then diluted with an equal volume of methanol resulting in final cGMP concentrations of 0.078-10 μM.
The cGMP standard curve was generated using GraphPad Prism Software.
Calculations: Specific Activity was determined by the amount of cGMP formed (nmoles) per mg of sGC per min. Enzyme “fold-change” was calculated by dividing Specific Activity for test compounds by Specific Activity of DMSO controls.

[4] = tested on: Thoracic aortic rings; test: Alternative thoracic aortic rings assay (Example 19b; resting tension as 100% inhibition); design: species or system rat; conditions: Rattus norvegicus, Table 10B; for inhibition at 1 µM: read-out: Percent Relaxation at 1 μM; for inhibition at 3 µM: read-out: Percent Relaxation at 3 μM; for EC50: read-out: Aortic Ring EC50; for inhibition at 10 µM: read-out: Percent Relaxation at 10 μM
Method: Thoracic aortic rings were dissected from anesthetized (isoflurane) male Sprague-Dawley rats weighing 275-299 g. Tissues were immediately transferred to ice-cold Krebs-Henseleit solution, which had been aerated with 95% O2 and 5% CO2 for 30 minutes. Following removal of connective tissue, aortic sections were cut into 4 rings (˜2 mm each) and suspended on 2 L-shaped hooks, with one hook fixed at the bottom of the tissue bath (Schuler Organ Bath, Harvard Apparatus) and the other connected to a force transducer (F30 Force Transducer, Harvard Apparatus). Baths contained Krebs Henseleit solution (10 mL) heated to 37° C. and aerated with 95% O2 and 5% CO2. Rings were brought to an initial tension of 0.3-0.5 g and gradually raised to a resting tension of 1.0 g over 60 minutes. Rings were rinsed with Krebs Henseleit solution (heated to 37° C. and aerated with 95% O2 and 5% CO2) at 15 minute intervals until a stable baseline was obtained. Rings were considered to be stable after a resting tension of 1.0 g was maintained (for approximately 10 minutes) without need for adjustment. Rings were then contracted with 100 ng/mL phenylephrine by adding 100 uL of a 10 μg/mL phenylephrine stock solution. Tissues achieving a stable contraction were then treated in a cumulative, dose dependent manner with test compounds prepared in dimethylsulfoxide (DMSO). In some cases, tissues were rinsed three times over a 5 minute period with Krebs-Heinseleit's solution (heated to 37° C. and aerated with 95% O2 and 5% CO2), allowed to stabilize at baseline, and then used for characterization of other test articles or DMSO effects. All data were collected using the HSE-ACAD software provided by Harvard Apparatus. […] EC50 values were calculated from concentration-response curves generated with GraphPad Prism Software.

[5] = read-out: HEK WC Assay (% Emax at 10 μM with 10 uM SNP)
[6] = read-out: HEK WC Assay (% Emax at 30 μM with 10 uM SNP)

Sequence of Human soluble guanylate cyclase enzyme (hsGC) (Q02153 whole entry): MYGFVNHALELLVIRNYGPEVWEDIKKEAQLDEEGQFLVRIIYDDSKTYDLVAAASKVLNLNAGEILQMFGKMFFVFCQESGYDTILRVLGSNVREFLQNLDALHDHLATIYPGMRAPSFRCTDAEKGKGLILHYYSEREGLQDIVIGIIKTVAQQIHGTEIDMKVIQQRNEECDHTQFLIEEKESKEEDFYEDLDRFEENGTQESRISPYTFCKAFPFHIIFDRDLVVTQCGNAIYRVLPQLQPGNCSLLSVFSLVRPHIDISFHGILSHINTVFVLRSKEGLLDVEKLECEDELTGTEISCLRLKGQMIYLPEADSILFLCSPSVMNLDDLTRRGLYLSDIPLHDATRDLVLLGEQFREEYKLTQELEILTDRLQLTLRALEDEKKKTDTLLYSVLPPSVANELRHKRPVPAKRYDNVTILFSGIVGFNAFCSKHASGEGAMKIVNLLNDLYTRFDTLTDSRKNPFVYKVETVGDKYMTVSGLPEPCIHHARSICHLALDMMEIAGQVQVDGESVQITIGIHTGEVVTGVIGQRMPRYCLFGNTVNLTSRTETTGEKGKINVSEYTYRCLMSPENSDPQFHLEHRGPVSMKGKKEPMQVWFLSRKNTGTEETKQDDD
Sequence of Human soluble guanylate cyclase enzyme (hsGC) (Q02108 whole entry): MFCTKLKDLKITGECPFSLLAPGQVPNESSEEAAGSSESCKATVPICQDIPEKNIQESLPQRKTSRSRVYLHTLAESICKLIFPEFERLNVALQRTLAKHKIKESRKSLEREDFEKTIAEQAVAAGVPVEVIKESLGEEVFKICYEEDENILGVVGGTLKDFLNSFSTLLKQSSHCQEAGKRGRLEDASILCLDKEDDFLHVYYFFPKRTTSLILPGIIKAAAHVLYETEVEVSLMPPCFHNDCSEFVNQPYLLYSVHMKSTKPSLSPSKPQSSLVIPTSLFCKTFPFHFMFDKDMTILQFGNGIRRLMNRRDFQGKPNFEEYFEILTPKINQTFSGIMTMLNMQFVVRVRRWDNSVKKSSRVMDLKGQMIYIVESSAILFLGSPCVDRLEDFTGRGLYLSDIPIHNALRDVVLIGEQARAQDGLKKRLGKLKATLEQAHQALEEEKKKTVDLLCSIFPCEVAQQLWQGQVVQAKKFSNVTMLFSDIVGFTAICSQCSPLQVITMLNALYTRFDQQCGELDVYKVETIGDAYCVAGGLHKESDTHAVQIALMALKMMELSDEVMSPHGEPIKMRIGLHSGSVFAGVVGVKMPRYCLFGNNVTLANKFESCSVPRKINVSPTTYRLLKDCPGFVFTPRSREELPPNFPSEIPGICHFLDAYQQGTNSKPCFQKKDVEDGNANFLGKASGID
T1 sequence (Q02153 whole entry): as the sequence (Q02153 whole entry) above
T1 sequence (Q02108 whole entry): as the sequence (Q02108 whole entry) above

Structure (SMILES)	Emax at 10 µM [1]	Emax at 30 µM [1]	HEK WC Assay (fold increase at 10 μM) [2]	HEK WC Assay (fold increase at 30 μM) [2]	sGC Enzyme (specific activity at 10 μM) [3]	sGC Enzyme (fold increase at 10 μM without SNP) [3]	sGC Enzyme (specific activity at 30 μM) [3]	sGC Enzyme (fold increase at 30 μM without SNP) [3]	HEK WC Assay (fold increase at 30 μM in the presence of 10 μM SNP) [1]	EC50 [1]	Emax [1, 5]	Emax [1, 6]	EC50 [4]	HEK WC Assay (fold increase at 30 μM in the absence of SNP) [2]	inhibition at 1 µM [4]	inhibition at 3 µM [4]	inhibition at 10 µM [4]
Fc1ccccc1Cn1nc(-c2ncccn2)cc1-c1cccnc1 [Compound I-10]	0 to 10%	0 to 10%	A (A = no increase to <1 fold increase)	A (A = no increase to <1 fold increase)	D (D = 200 to <500)	B (B = 2 to <5 fold increase)	D (D = 200 to <500)	B (B = 2 to <5 fold increase)	–	–	–	–	–	–	–	–	–
Fc1ccccc1Cn1nc(-c2ccccn2)cc1-c1ccncc1 [Compound I-11]	0 to 10%	0 to 10%	A (A = no increase to <1 fold increase)	A (A = no increase to <1 fold increase)	–	A (A = no increase to <2 fold increase)	C (C = 100 to <200)	A (A = no increase to <2 fold increase)	–	–	–	–	–	–	–	–	–
COc1cccc(-c2cc(-c3ncccn3)n(Cc3ccccc3F)n2)n1 [Compound I-15]	0 to 10%	0 to 10%	A (A = no increase to <1 fold increase)	A (A = no increase to <1 fold increase)	C (C = 100 to <200)	A (A = no increase to <2 fold increase)	C (C = 100 to <200)	A (A = no increase to <2 fold increase)	–	–	–	–	–	–	–	–	–
Fc1ccccc1Cn1nc(-c2ncccn2)cc1-c1ccncc1 [Compound I-19]	–	–	A (A = no increase to <1 fold increase)	A (A = no increase to <1 fold increase)	–	A (A = no increase to <2 fold increase)	–	A (A = no increase to <2 fold increase)	–	–	–	–	–	–	–	–	–
Fc1ccccc1Cn1nc(-c2ccccn2)cc1-c1cccnc1 [Compound I-20]	–	–	A (A = no increase to <1 fold increase)	A (A = no increase to <1 fold increase)	C (C = 100 to <200)	A (A = no increase to <2 fold increase)	D (D = 200 to <500)	A (A = no increase to <2 fold increase)	–	–	–	–	–	–	–	–	–
Fc1ccccc1Cn1nc(-c2ccccn2)cc1-c1ccncn1 [Compound I-21]	0 to 10%	10 to 20%	A (A = no increase to <1 fold increase)	A (A = no increase to <1 fold increase)	C (C = 100 to <200)	A (A = no increase to <2 fold increase)	C (C = 100 to <200)	A (A = no increase to <2 fold increase)	–	–	–	–	–	–	–	–	–
Fc1ccccc1Cn1nc(-c2ncccn2)cc1-c1cnc2ccoc2c1 [Compound I-32]	0 to 10%	0 to 10%	A (A = no increase to <1 fold increase)	A (A = no increase to <1 fold increase)	C (C = 100 to <200)	A (A = no increase to <2 fold increase)	D (D = 200 to <500)	A (A = no increase to <2 fold increase)	–	–	–	–	–	–	–	–	–
Fc1ccccc1Cn1nc(-c2ccccn2)cc1-c1cnccn1 [Compound I-34]	0 to 10%	0 to 10%	A (A = no increase to <1 fold increase)	A (A = no increase to <1 fold increase)	B (B = 50 to <100)	A (A = no increase to <2 fold increase)	C (C = 100 to <200)	A (A = no increase to <2 fold increase)	–	–	–	–	–	–	–	–	–
Nc1ccnc(-c2cc(-c3ccccn3)nn2Cc2ccccc2F)n1 [Compound I-41]	0 to 10%	0 to 10%	A (A = no increase to <1 fold increase)	A (A = no increase to <1 fold increase)	B (B = 50 to <100)	A (A = no increase to <2 fold increase)	C (C = 100 to <200)	B (B = 2 to <5 fold increase)	–	–	–	–	–	–	–	–	–
COC(=O)Nc1cnc(-c2cc(-c3ccon3)n(Cc3ccccc3F)n2)nc1N [Compound I-142]	–	–	–	–	–	–	–	–	F (F = 20 to <30 fold increase)	< 20 µM	100 to 120%	100 to 120%	< 2 µM	E (E = 10 to <20 fold increase)	80 to 100%	100 to 120%	–

Second part, led by results:

Emax at 10 µM [1]	Emax at 30 µM [1]	HEK WC Assay (fold increase at 10 μM) [2]	HEK WC Assay (fold increase at 30 μM) [2]	sGC Enzyme (specific activity at 10 μM) [3]	sGC Enzyme (fold increase at 10 μM without SNP) [3]	sGC Enzyme (specific activity at 30 μM) [3]	sGC Enzyme (fold increase at 30 μM without SNP) [3]	HEK WC Assay (fold increase at 30 μM in the presence of 10 μM SNP) [1]	EC50 [1]	Emax [1, 5]	Emax [1, 6]	EC50 [4]	HEK WC Assay (fold increase at 30 μM in the absence of SNP) [2]	Structure (SMILES)	inhibition at 1 µM [4]	inhibition at 3 µM [4]	inhibition at 10 µM [4]
–	–	–	–	–	–	–	–	E (E = 10 to <20 fold increase)	< 20 µM	80 to 100%	60 to 80%	< 2 µM	D (D = 5 to <10 fold increase)	Nc1nc(-c2cc(-c3ncco3)n(Cc3ccccc3F)n2)ncc1F [Compound I-147]	60 to 80%	80 to 100%	80 to 100%
–	–	–	–	–	–	–	–	E (E = 10 to <20 fold increase)	< 20 µM	100 to 120%	100 to 120%	< 2 µM	D (D = 5 to <10 fold increase)	CC(C)(C)OC(=O)Nc1cnc(-c2cc(-c3ncco3)n(Cc3ccccc3F)n2)nc1N [Compound I-148]	80 to 100%	80 to 100%	–
–	–	–	–	–	–	–	–	E (E = 10 to <20 fold increase)	< 20 µM	80 to 100%	80 to 100%	< 2 µM	E (E = 10 to <20 fold increase)	CC(C)COC(=O)Nc1cnc(-c2cc(-c3ccon3)n(Cc3ccccc3F)n2)nc1N [Compound I-150]	40 to 60%	80 to 100%	80 to 100%
–	–	–	–	–	–	–	–	D (D = 5 to <10 fold increase)	< 20 µM	60 to 80%	60 to 80%	< 2 µM	C (C = 2 to <5 fold increase)	CC(=O)Nc1cnc(-c2cc(-c3ncco3)n(Cc3ccccc3F)n2)nc1N [Compound I-151]	80 to 100%	100 to 120%	100 to 120%
